Results published in patent EP3733658B1, “PRENYLATED BENZOPYRANES AS PPAR AGONISTS” (Universitat de València, priority 2017, dated 2019).

How the values were obtained:
[1] = Treatment of ob/ob mice: plasma metabolites (cholesterol, HDL-c, triglycerides, free fatty acids, ALT, AST); type: in vivo; parameters: blood levels of free fatty acids: unit not given here; settings: oral, 4 days; for triglyceride levels in plasma: control 137 mg/dL
Procedure: (§1) […]. […] […].
Free fatty acids (FFA) in plasma, and the enzymes aspartate aminotransferase (AST) and alanine aminotransferase (ALT) were determined with a colorimetric assay kit (Sigma-Aldrich, Madrid, Spain). In addition the plasma lipid levels for total cholesterol and triglycerides (TG) were measured by enzymatic methods (WAKO, Cape Charles, VA). The concentration of HDLcholesterol (HDL-c) was also determined with the same method used to measure total cholesterol, after precipitating the apolipoprotein-B (apoB) with dextran sulphate/MgCl2 (Sigma-Aldrich, Madrid, Spain) as previously described (Zieske et al., 2005).

CXCL16 = assay: Flow cytometry of TNFα-induced CXCL16 expression in HUVEC; type: cell-based, human; settings: 3 µM, TNFα 20 ng/mL 24 h
Procedure: The cells were collected from the flasks using accutase (StemPro® Accutase® Cell Dissociation Reagent, ThermoFischer Scientific, Waltham, MA).
Then they were washed and incubated for 1 h with a APC-conjugated mAb antibody against human VCAM-1 (100 µg/mL; clone STA, BioLegend, San Diego, CA), a FITC- conjugated mAb against human ICAM-1 (400 µg/mL; clone HA58, BioLegend, San Diego, CA), a PE-conjugated mAb against human CX3CL1 (1.25 µg/mL; clone 51637, R&D Systems, Minneapolis, MN) or with a APC-conjugated mAb antibody against human CXCL16 (clone 256213, R&D Systems, Abingdon, UK), all at a dilution of 1:25 in 3% BSA/PBS. The samples were analyzed using a BD FACSVerse Flow Cytometer (BD Biosciences, San Jose, CA).

[2] = test system: white adipose tissue (WAT); assay: Treatment of ob/ob mice: white adipose tissue weight, histology and F4/80 immunohistochemistry; type: in vivo; settings: oral, 4 days
From the text: as §1
The samples of epididymal white adipose tissue (WAT) and liver were fixed in 4% paraformaldehyde, embedded in paraffin, sectioned with a microtome (Leica RM2245, Leica Biosystems, Wetzlar, Germany) and mounted in microscope slides Superfrost® plus (Thermo Fisher Scientific, Waltham, MA). Cross sections of WAT and liver were obtained. At least 10 slides were examined containing ≈ 4 cross sections of tissue (5 µm thickness) of each animal. Hematoxilin and eosin (H&E) staining was performed of the WAT and liver. Inflammatory infiltration in WAT was measured as previously described (Toyoda et al., 2008). After inactivation of the peroxidase (3% H2O2) and blocking with goat serum (Abcam, Cambridge, UK), cross sections of WAT were incubated overnight (4°C) with the following primary (mAb) monoclonal antibody: a rabbit anti-mouse F4/80 mAb (dilution 1:100, Abcam, Cambridge, UK). A specific marking was detected with a secondary goat HRP-conjugated anti-rabbit antibody (dilution 1:500, Dako, Copenhagen, Denmark). To confirm the specificity of the antibodies, control antibodies with the same isotope (Abcam, Cambridge, UK) or secondary antibody were used only as negative controls. […] Five fields of each WAT tissue section were photographed (Axio Observer A1, Carl Zeiss microscope, Thornwood, NY) digitalized and analyzed (Imaged software 1.48V, Bethesda, […]). Quantification was performed double blind with codes.

liver = assay: Treatment of ob/ob mice: liver weight and liver triglycerides; type: in vivo; settings: oral, 4 days
From the text: 6 animals were used in each group in independent experiments (n=6).

human neutrophils = assay: Annexin V / propidium iodide flow cytometry of apoptosis and survival, neutrophils; type: cell-based; settings: 24 h, compared to the vehicle
Procedure: In addition, the apoptosis and survival rate for human neutrophils and HUVEC was determined by double staining with annexin V and propidium iodide (PI) by flow cytometry.
Cytofluorometric analysis of apoptosis and survival. The kit FITC Annexin V Apoptosis Detection kit (BD Bioscience, San Jose, CA) was used. The staining protocol and all the reagents were supplied with the commercial kit. HUVEC were separated from the culture flasks by accutase (StemPro® Accutase® Cell dissociation reagent, Thermofischer Scientific Waltham, MA). Both cell types were incubated at 37°C for 24h in the presence or absence of the test compounds. Confluent HUVEC and freshly isolated neutrophils were washed, resuspended in binding buffer 1x (1 × 10^6 cells/mL) and stained with annexin V conjugated with FITC and propidium iodide (PI) as described in the manufacturer's instructions. The cells were analyzed in a BD FACSVerse Flow Cytometer (BD Biosciences, San Jose, CA) and differentiated as early apoptosis cells (annexin V^+ and PI^-), late apoptosis cells and/or necrotic cells (annexin V^+ and PI^+), and live cells (annexin V^- and PI^-).

[3] = Treatment of ob/ob mice: body weight gain and feed efficiency; settings: oral, 4 days
From the text: Protocols conforming to European Union guidelines for the care and protection of animals were approved by the Ethics Committee of the University of Valencia. All efforts were made to minimize the number of animals used and their suffering. ob/ob mice have a leptin deficiency, and are associated with hyperphagia and obesity, as well as hyperglycemia and hyperinsulinemia. This study used male ob/ob mice (C57BU6J) (Charles River laboratories, Chatillon-sur-Chalaronne, France).
The mice were housed in individual cages in a room with controlled temperature, humidity and light. […] The mice were allowed to acclimate for ten days prior to the study.
The control ob/ob mice were just administered with vehicle (physiological saline solution with HEC 1%). […] The compounds were prepared freshly each day in a 1% suspension of HEC for oral administration. Randomization was performed based on the glycaemia values on day 0. For the duration of the experiment the amount of food ingested and the body weight were determined daily for each mouse. Every day between 9:00 and 11:00 a.m. (prior to treatment) blood glucose levels were measured using (Contour next USB Blood glucose meter, BAYER, Basel, Switzerland). On the fifth day of the experiment the mice were anesthesized with isofluorane and blood was extracted by cardiac puncture. The blood was collected in tubes containing EDTA or heparin. Plasma samples were obtained by centrifugation and stored at -80°C. After obtaining the samples, the animals were sacrificed by cervical dislocation and subsequently different organs such as white adipose tissue (WAT) and liver were extracted for additional studies. The organs were weighed and frozen for subsequent RNA analysis and to conduct histological studies
The weight gain at the end of treatment was calculated (d5-d0) (Figure 14A).

[4] = test system: mononuclear cell adhesion induced by TNFα; assay: Mononuclear cell adhesion to TNFα-stimulated HUVEC transfected with control or RXRα, PPARα, PPARγ specific siRNA; type: cell-based, human; settings: 20 h

CCOC(=O)CCC(C)=CCCC1(C)CCc2cc(OCc3ccc(F)cc3)ccc2O1 (centres unmarked) [Compound 9]
triglyceride levels in plasma ([1]; 10 mg/Kg/d): 122 mg/dL | triglyceride levels in plasma ([1]; 30 mg/Kg/d): 101 mg/dL | blood levels of free fatty acids ([1]; 30 mg/Kg/d, control 0.67): 0.25 | triglyceride levels in plasma (in words) [1]: decrease of triglyceride levels in plasma, although not in a significant manner | decrease of AST level compared to the ob/ob control group ([1]; plasma, 30 mg/Kg/d): 28% | increase of total cholesterol levels with respect to the control group ([1]; plasma, 30 mg/Kg/d): 50% | ALT level ([1]; plasma): reduced | HDL-c with respect to the control group ([1]; plasma, compound 9 10 and 30 mg/Kg/d, WY-14643 30 mg/Kg/d): significantly increased | expression of CXCL16 induced by TNFα (CXCL16): significant decrease | number of macrophages (F4/80) in WAT ([2]; 30 mg/Kg/d): significantly reduce | weight of epididymal white adipose tissue (WAT) compared to the control group [2]: did not significantly increase | mean area of the adipocytes in WAT ([2]; compound 9 10 and 30 mg/Kg/d (dose-dependent), rosiglitazone 10 mg/Kg/d): significant decrease | triglyceride content in the liver compared to the ob/ob control group (liver; 30 mg/Kg/d): did not accumulate significantly | liver weight with respect to the ob/ob control group (liver): non-significant weight increase | effect on neutrophil survival (human neutrophils; 30 µM): 1.07% | effect on cell survival (human neutrophils; 100 µM): 1.55% | Weight gain (d5-d0) ([3]; 30 mg/Kg/d): 1.88 ± 0.52 g | Feed efficiency (ratio of weight gain and food consumed) [3]: no observable differences | weight gain compared to the control group ([3]; doses of 10 and 30 mg/Kg/d): did not cause significant differences

C/C(=C\CCC1(C)CCc2cc(O)cc(C)c2O1)CC/C=C(\C)C(=O)O (centres unmarked) [Polycerasoidol, 1, polycerasoidol]
inhibitory response on mononuclear cell adhesion after PPARα silencing ([4]; PPARα siRNA HUVEC, polycerasoidol 10 µM, rosiglitazone 1 µM): not affected | inhibitory response on mononuclear cell adhesion in HUVEC deficient in PPARγ ([4]; PPARγ siRNA HUVEC, 10 µM): annulled | inhibitory effect on mononuclear cell adhesion after RXRα silencing ([4]; RXRα specific siRNA HUVEC, 10 µM): completely suppressed | TNFα-induced adhesion of mononuclear cells ([4]; control siRNA transfected HUVEC, polycerasoidol 10 µM, rosiglitazone 1 µM): inhibited
